Experiments:
[1] = biological target: 5-hydroxytryptamine receptor 2A (Homo sapiens, UniProt P28223); type: cell-based, CHO
MDR1 (P-gp) [2] = assay: Permeability from basolateral to apical side of the MDCK cell transfected with human MDR1; type: ADME, cell-based
[3] = Half life in phosphate buffer at pH 7.4 in 25 degC; type: ADME
[4] = biological target: T1, 5-hydroxytryptamine receptor 2A (Rattus norvegicus, UniProt P14842); type: tissue-based, Cerebral cortex
[5] = biological target: 5-hydroxytryptamine receptor 2A (Rattus norvegicus) (UniProt P14842); assay: (§1) Activity against 5HT2A mediated intracellular calcium mobilization by FLIPR in rat vascular smooth muscle cells; type: functional, cell-based
[6] = biological target: T1, 5-hydroxytryptamine receptor 2A; assay: as §1; type: functional, cell-based
[7] = biological target: 5-hydroxytryptamine receptor 2B (Rattus norvegicus, UniProt P30994); assay: Activity against 5HT2B receptor in longitudinal stomach fundus strips in wistar rats
[8] = biological target: T2, 5-hydroxytryptamine receptor 2C (Rattus norvegicus, UniProt P08909); assay: Activity against recombinant rat 5HT2C mediated intracellular calcium mobilization by FLIPR in SR3T3 cells
T2 sequence (P08909 whole entry): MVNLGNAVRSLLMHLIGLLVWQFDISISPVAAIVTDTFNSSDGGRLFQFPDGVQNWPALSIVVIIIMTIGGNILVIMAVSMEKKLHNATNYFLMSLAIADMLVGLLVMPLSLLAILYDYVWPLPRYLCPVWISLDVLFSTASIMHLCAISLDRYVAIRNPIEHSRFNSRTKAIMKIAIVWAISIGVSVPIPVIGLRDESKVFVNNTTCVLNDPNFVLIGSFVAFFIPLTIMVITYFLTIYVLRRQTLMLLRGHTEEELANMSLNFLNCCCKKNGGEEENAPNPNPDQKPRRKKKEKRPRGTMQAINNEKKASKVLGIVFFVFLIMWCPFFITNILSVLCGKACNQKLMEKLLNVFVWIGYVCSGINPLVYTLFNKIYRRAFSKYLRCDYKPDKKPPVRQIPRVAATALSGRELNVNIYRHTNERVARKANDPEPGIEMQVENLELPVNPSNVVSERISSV

[9] = Distribution coefficient at pH 7.4; type: physicochemical; settings: octanol/water
MDR1 (P-gp) [10] = assay: Permeability from apical to basolateral side of the MDCK cell transfected with human MDR1; type: ADME, cell-based
MDR1 (P-gp) [11] = assay: in vitro; settings: human, MDCK-MDR1
Description: Ratio of permeability from basolateral to apical over apical to basolateral side of the MDCK cell transfected with human MDR1

[12] = biological target: 5-hydroxytryptamine receptor 2B (Homo sapiens, UniProt P41595); assay: biochemical
Description: Displacement of [125I]DOI from cloned human 5HT2B receptor expressed in CHO cells

[13] = biological target: T3, 5-hydroxytryptamine receptor 2C (Homo sapiens, UniProt P28335); assay: biochemical
T3 sequence (P28335 whole entry): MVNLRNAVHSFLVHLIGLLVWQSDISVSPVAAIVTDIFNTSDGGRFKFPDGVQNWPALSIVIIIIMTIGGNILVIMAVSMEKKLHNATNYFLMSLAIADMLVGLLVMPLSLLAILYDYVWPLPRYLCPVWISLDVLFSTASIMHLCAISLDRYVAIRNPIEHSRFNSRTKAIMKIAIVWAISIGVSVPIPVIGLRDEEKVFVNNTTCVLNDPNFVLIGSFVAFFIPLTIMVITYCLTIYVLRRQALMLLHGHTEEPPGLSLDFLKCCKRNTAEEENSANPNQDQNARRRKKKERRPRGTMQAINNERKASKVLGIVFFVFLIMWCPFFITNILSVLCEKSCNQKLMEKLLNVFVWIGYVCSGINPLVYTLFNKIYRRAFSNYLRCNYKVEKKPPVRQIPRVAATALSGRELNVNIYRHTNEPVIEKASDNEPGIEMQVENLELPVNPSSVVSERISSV
Description: Displacement of [125I]DOI from cloned human 5HT2C receptor expressed in CHO cells

[14] = biological target: T4, 5-hydroxytryptamine receptor 2C (Rattus norvegicus) (UniProt P08909); assay: Activity against recombinant rat 5HT2C mediated intracellular calcium mobilization by FLIPR in SR3T3 cells
T4 sequence (whole entry): T2 sequence (P08909 whole entry)

[15] = Half life in phosphate buffer at pH 7.4 in 45 degC; type: ADME
[16] = biological target: T5, 5-hydroxytryptamine receptor 1A (Homo sapiens, UniProt P08908); assay: Agonistic activity at cloned human 5HT1A receptor expressed in CHO cells by inhibition of forskolin-induced cAMP production; type: functional, cell-based
T5 sequence (P08908 whole entry): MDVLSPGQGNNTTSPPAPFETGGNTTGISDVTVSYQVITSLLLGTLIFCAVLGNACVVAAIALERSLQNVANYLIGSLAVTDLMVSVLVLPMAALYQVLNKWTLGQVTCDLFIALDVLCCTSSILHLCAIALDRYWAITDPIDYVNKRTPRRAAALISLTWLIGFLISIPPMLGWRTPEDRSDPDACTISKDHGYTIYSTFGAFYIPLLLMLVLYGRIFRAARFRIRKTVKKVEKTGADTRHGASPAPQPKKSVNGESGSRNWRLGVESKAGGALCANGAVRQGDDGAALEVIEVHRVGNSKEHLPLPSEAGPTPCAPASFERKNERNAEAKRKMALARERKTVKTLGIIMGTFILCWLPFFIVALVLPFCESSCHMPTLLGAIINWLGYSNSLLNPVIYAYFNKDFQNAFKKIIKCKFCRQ

[17] = biological target: 5-hydroxytryptamine receptor 7 (Homo sapiens, UniProt P34969); assay: Activity at 5HT7 receptor expressed in human corneal epithelial CEPI-17-CL4 cells by adenylyl cyclase assay; type: functional, cell-based, Cornea
[18] = biological target: T6, Alpha-2A adrenergic receptor (Homo sapiens, UniProt P08913); assay: Activity at adrenergic alpha-2A receptor expressed in human clonic adenocarcinoma HT29 cell by adenylyl cyclase assay; type: functional, cell-based, HT-29
T6 sequence (P08913 whole entry): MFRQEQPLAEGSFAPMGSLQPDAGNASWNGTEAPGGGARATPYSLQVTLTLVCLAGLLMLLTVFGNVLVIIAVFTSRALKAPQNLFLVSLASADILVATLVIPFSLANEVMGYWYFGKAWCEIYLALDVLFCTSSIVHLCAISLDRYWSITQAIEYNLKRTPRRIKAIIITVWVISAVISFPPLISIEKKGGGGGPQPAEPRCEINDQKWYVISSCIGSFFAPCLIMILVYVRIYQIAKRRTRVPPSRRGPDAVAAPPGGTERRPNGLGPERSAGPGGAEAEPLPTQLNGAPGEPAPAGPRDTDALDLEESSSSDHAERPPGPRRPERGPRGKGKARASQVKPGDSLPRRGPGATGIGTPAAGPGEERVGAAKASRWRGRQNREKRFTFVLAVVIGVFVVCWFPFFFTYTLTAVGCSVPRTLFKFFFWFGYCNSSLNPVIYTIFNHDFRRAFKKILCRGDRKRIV

[19] = biological target: T6, Alpha-2A adrenergic receptor; assay: Activity at adrenergic alpha2A receptor expressed in human clonic adenocarcinoma HT29 cell by […]; type: functional, cell-based, HT-29
[20] = biological target: Alpha-2B adrenergic receptor (Homo sapiens, UniProt P18089); assay: Activity at adrenergic alpha-2B receptor expressed in opposum kidney OK cell by adenylyl cyclase assay; type: functional, cell-based
[21] = biological target: T7, Alpha-2C adrenergic receptor (Homo sapiens, UniProt P18825); assay: Activity at adrenergic Alpha-2C receptor expressed in rat-mouse hybrid […] cell by adenylyl cyclase assay; type: functional, cell-based
T7 sequence (P18825 whole entry): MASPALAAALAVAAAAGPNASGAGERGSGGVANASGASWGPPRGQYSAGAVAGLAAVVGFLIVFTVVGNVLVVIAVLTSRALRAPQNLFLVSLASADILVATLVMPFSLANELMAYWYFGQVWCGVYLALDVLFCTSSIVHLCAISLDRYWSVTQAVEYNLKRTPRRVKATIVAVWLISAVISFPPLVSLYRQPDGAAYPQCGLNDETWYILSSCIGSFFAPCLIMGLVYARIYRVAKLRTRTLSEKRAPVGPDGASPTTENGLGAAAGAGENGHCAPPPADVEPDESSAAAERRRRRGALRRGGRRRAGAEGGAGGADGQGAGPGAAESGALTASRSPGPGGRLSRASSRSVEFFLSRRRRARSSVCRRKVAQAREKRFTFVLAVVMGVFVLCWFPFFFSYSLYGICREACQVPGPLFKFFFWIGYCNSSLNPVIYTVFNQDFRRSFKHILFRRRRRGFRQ

Chain of 5-hydroxytryptamine receptor 2B (Homo sapiens, UniProt P41595) (P41595 whole entry): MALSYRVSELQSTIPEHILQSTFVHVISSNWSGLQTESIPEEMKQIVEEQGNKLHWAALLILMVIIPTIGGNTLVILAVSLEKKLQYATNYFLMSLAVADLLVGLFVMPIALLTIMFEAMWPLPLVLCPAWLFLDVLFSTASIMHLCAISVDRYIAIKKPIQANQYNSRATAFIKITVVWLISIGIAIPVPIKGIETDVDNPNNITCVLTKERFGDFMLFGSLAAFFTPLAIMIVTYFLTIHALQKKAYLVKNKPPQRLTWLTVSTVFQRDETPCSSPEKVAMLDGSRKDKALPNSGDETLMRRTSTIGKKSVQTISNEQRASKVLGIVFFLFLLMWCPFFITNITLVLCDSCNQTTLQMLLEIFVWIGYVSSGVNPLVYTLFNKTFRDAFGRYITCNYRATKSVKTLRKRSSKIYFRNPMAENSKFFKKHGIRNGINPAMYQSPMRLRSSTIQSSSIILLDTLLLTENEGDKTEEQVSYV
Chain of 5-hydroxytryptamine receptor 2B (Rattus norvegicus, UniProt P30994) (P30994 whole entry): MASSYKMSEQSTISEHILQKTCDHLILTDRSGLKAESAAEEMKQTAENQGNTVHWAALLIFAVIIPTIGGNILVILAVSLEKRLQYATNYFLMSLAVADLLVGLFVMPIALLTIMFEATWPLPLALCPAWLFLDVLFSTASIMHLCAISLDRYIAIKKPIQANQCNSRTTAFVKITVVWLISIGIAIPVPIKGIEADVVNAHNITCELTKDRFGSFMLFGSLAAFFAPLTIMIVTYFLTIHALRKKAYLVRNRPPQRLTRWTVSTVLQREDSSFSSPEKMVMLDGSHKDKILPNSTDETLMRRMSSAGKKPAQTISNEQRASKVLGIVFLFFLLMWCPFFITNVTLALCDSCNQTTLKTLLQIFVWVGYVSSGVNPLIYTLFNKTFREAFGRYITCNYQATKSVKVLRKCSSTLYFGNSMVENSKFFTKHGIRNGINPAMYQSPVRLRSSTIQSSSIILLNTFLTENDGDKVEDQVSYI
T1 sequence (P14842 whole entry): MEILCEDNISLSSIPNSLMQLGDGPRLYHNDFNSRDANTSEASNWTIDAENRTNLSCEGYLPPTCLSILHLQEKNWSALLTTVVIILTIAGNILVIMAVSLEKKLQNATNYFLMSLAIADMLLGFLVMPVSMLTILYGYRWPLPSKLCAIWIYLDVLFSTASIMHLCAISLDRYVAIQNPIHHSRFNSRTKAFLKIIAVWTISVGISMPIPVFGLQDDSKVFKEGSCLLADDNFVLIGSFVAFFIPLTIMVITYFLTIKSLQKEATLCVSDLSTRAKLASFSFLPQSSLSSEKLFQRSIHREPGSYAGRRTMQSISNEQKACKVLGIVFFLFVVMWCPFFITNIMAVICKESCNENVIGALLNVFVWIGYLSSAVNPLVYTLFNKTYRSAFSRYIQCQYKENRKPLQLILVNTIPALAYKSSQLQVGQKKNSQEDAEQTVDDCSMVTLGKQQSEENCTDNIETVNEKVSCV
Chain of 5-hydroxytryptamine receptor 2A (Rattus norvegicus) (P14842 whole entry): as above
Chain of 5-hydroxytryptamine receptor 2A (Homo sapiens, UniProt P28223) (P28223 whole entry): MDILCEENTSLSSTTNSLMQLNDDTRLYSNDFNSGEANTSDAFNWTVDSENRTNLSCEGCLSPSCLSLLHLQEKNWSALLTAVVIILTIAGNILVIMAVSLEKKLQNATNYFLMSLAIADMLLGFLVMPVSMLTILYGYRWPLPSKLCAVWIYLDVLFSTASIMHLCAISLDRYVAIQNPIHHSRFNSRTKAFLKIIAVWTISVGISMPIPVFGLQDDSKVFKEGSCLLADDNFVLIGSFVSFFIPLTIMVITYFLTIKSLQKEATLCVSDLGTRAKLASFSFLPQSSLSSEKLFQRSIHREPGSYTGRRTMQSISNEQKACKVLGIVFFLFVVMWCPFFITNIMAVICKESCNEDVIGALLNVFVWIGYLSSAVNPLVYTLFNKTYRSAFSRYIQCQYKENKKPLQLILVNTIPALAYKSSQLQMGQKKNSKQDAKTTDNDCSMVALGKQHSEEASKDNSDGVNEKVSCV
Chain of Alpha-2B adrenergic receptor (P18089 whole entry): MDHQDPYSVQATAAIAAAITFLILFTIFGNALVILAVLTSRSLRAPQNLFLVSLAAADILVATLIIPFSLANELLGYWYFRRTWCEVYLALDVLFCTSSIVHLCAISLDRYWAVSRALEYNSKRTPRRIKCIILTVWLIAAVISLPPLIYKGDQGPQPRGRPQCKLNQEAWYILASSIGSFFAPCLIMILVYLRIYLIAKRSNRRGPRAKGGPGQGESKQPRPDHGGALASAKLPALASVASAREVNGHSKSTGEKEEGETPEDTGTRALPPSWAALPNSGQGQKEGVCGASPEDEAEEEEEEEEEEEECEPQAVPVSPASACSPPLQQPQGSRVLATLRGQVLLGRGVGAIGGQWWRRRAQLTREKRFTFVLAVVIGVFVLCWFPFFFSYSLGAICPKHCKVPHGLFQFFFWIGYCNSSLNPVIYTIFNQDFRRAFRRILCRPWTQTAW
Chain of 5-hydroxytryptamine receptor 7 (P34969 whole entry): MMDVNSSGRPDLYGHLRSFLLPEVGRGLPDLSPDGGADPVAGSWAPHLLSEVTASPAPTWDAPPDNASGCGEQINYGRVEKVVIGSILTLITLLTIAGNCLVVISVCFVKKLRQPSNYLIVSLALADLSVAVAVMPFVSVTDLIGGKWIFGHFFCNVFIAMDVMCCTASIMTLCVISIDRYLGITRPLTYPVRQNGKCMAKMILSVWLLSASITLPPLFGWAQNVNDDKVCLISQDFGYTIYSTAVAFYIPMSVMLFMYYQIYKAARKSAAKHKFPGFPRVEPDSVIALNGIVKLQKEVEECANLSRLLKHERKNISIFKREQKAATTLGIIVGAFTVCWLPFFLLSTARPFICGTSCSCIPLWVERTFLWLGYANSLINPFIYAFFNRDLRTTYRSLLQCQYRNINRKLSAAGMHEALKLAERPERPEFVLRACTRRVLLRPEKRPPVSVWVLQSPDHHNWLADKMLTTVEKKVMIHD

Row | Structure (SMILES) | Ki [1] [nM] | Papp B→A (MDR1 (P-gp) [2]) [×10⁻⁶ cm/s] | T1/2 [3] [yr] | IC50 [4] [nM] | Emax [5] [%] | EC50 [6] [nM] | EC50 [7] [nM] | EC50 [8] [nM] | logD [9] | Papp A→B (MDR1 (P-gp) [10]) [×10⁻⁶ cm/s] | Ki [12] [nM] | Ki [13] [nM] | Emax [14] [%] | also measured
1 | C[C@H](N)Cn1ncc2ccc(O)c(F)c21 | 5.8 | 1.66 | 1.4 | 0.73 | 80 | 58.1 | 6.1 | 5.5 | 0.394 | 1.11 | 1.7 | 1 | 100 | efflux ratio (MDR1 (P-gp) [11]): 1.5
2 | C[C@H](N)Cn1ncc2ccc(O)c(Cl)c21 | 12 | 4.94 | 4 | 0.54 | 87 | 59.7 | 5.9 | 4.9 | 1.09 | 1.65 | 3.8 | 1.2 | 104 | efflux ratio (MDR1 (P-gp) [11]): 3
3 | COc1ccc2[nH]cc(CCN(C)C)c2c1 [MEBUFOTENIN] | – | 14.4 | – | 9.53 | 70 | 462 | – | – | 3.3 | 16.1 | – | – | 89 | –
4 | NCCc1c[nH]c2ccc(O)cc12 [SEROTONIN] | – | – | – | – | 99 | – | – | – | – | – | – | – | 94 | T1/2 [15]: 0.03 yr
5 | COc1ccc2[nH]cc(CC(C)N)c2c1 (configuration not stated) | – | – | – | 2 | 96 | 47.5 | 2.7 | 3.1 | – | – | – | – | 103 | –
6 | C[C@@H](N)Cn1ncc2ccc(O)cc21 | 105 | – | – | 2.08 | 61 | 236 | 85 | 87.3 | – | – | 35 | 34 | 97 | EC50 [16]: 2890 nM; EC50 [17]: > 10000 nM; EC50 [18]: > 10000 nM; EC50 [19]: 1990 nM; EC50 [20]: 4710 nM; EC50 [21]: 5660 nM
7 | NCCn1ncc2ccc(O)cc21 | 20 | 0.6 | 3.7 | 0.77 | 75 | 74.4 | 8.6 | 4.5 | 0.254 | 0.64 | 15 | 9.6 | 104 | –
8 | COc1cc(C[C@@H](C)N)c(OC)cc1I | – | 23.2 | – | 0.21 | 35 | 19.8 | 11.9 | 30.2 | 2.72 | 12.6 | – | – | – | –
9 | Cc1c(O)ccc2cnn(C[C@H](C)N)c12 | 1.8 | 3.12 | 0.73 | 0.74 | 89 | 81.3 | 8.9 | 7.3 | 1.28 | 2.49 | 8.7 | 3.6 | 91 | –
10 | C[C@H](N)Cn1ncc2ccc(O)c(I)c21 | 21 | 3.46 | – | 1.68 | 73 | 204 | – | – | 3 | 1.22 | 6 | 4.8 | – | –
11 | COc1ccc2cnn(C[C@H](C)N)c2c1 | 16 | 19.5 | – | 1.91 | 90 | 54 | 4.2 | 6.7 | 2.08 | 14.1 | 7.5 | 1.5 | 103 | –
12 | CC(N)Cc1c[nH]c2ccc(O)cc12 (configuration not stated) | – | – | – | – | 96 | – | – | – | – | – | – | – | 100 | T1/2 [15]: 0.071 yr
